Results from US20200330655A1, “DELIVERY OF NITRIC OXIDE-RELEASING PHOSPHOLIPIDS, LIPOSOMES, AND HIGH DENSITY LIPOPROTEIN-LIKE NANOPARTICLES (HDL NPS) BY DRUG ELUTING STENTS AND INTRA-ARTERIAL INJECTION” (Northwestern University, priority 2016, published 2020).

Assays:
[1] = SNO DPPTE exposure to light and/or room temperature; type: physicochemical; settings: FIG. 17
[2] = test system: porcine coronary injury model; settings: drug eluting stent loaded with the NO donor; cited from earlier work

stability on exposure to light and/or room temperature [1] | Substance | neointimal hyperplasia and restenosis [2]
forms disulfide bonds | S-nitrosylated 1,2-dipalmitoyl-sn-glycero-3-phosphothioethanol [SNO DPPTE] | –
– | nitroprus side | did not reduce
